# Assay results published in ChEMBL document CHEMBL3885881, “DrugMatrix”.
# Organism: Rattus norvegicus
# Experiment: DrugMatrix - Regimen: Daily Repeat
# Assay type: toxicity, organism-based, Sprague-Dawley
# Design: regimen Daily Repeat, gender Male, age 6-8 weeks
# Details: in vivo, po, route oral GAVAGE, […]; for BASOPHIL / EOSINOPHIL / ERYTHROCYTE COUNT / HEMATOCRIT / HEMOGLOBIN / LEUKOCYTE COUNT / LYMPHOCYTE / MEAN CORPUSCULAR HEMOGLOBIN / MEAN CORPUSCULAR HEMOGLOBIN CONCENTRATION / MEAN CORPUSCULAR VOLUME / MONOCYTE / NEUTROPHIL / PLATELET COUNT: tissue Blood; for ALANINE AMINOTRANSFERASE / ALBUMIN / ALKALINE PHOSPHATASE / ASPARTATE AMINOTRANSFERASE / BLOOD UREA NITROGEN / CARBON DIOXIDE / CHLORIDE / CHOLESTEROL / CREATINE PHOSPHOKINASE / CREATININE / GLUCOSE / LACTATE DEHYDROGENASE / LIPASE / PHOSPHORUS / POTASSIUM / SODIUM / TOTAL BILIRUBIN / TOTAL PROTEIN / URIC ACID: tissue Plasma
# [1] = 100 mg/kg, 72 h, dose level Low, time 3 day
# [2] = 100 mg/kg, 120 h, dose level Low, time 5 day
# [3] = 1200 mg/kg, 72 h, dose level High, time 3 day
# [4] = 1200 mg/kg, 120 h, dose level High, time 5 day
compound,measurement,setting,value
Cc1c(C)c2c(c(C)c1O)CCC(C)(COc1ccc(CC3SC(=O)NC3=O)cc1)O2 (stereo not drawn) [TROGLITAZONE],BASOPHIL,[1],0%
same,EOSINOPHIL,[1],1%
same,ERYTHROCYTE COUNT,[1],6.97 x10E6/uL
same,HEMATOCRIT,[1],42.83%
same,HEMOGLOBIN,[1],14.33 G/DL
same,LEUKOCYTE COUNT,[1],7.7 x10E3/uL
same,LYMPHOCYTE,[1],77.67%
same,MEAN CORPUSCULAR HEMOGLOBIN,[1],20.57 pg
same,MEAN CORPUSCULAR HEMOGLOBIN CONCENTRATION,[1],33.5 G/DL
same,MEAN CORPUSCULAR VOLUME,[1],61.4 fL
same,MONOCYTE,[1],3%
same,NEUTROPHIL,[1],18.33%
same,PLATELET COUNT,[1],1143 x10E3/uL
same,ALANINE AMINOTRANSFERASE,[1],57.67 u/L
same,ALBUMIN,[1],4.33 G/DL
same,ALKALINE PHOSPHATASE,[1],396.67 u/L
same,ASPARTATE AMINOTRANSFERASE,[1],112.67 u/L
same,BLOOD UREA NITROGEN,[1],14.67 mg/dL
same,CARBON DIOXIDE,[1],24.67 mmol/L
same,CHLORIDE,[1],103.33 MEQ/L
same,CHOLESTEROL,[1],74.67 mg/dL
same,CREATINE PHOSPHOKINASE,[1],585.67 u/L
same,CREATININE,[1],0.3 mg/dL
same,GLUCOSE,[1],141 mg/dL
same,LACTATE DEHYDROGENASE,[1],938.33 u/L
same,LIPASE,[1],10 u/L
same,PHOSPHORUS,[1],8.83 mg/dL
same,POTASSIUM,[1],5.6 MEQ/L
same,SODIUM,[1],144.33 MEQ/L
same,TOTAL BILIRUBIN,[1],0.1 mg/dL
same,TOTAL PROTEIN,[1],5.83 G/DL
same,URIC ACID,[1],1.2 mg/dL
same,BASOPHIL,[2],0.33%
same,EOSINOPHIL,[2],0.67%
same,ERYTHROCYTE COUNT,[2],7.13 x10E6/uL
same,HEMATOCRIT,[2],43.8%
same,HEMOGLOBIN,[2],14.4 G/DL
same,LEUKOCYTE COUNT,[2],13.53 x10E3/uL
same,LYMPHOCYTE,[2],82.33%
same,MEAN CORPUSCULAR HEMOGLOBIN,[2],20.2 pg
same,MEAN CORPUSCULAR HEMOGLOBIN CONCENTRATION,[2],32.87 G/DL
same,MEAN CORPUSCULAR VOLUME,[2],61.5 fL
same,MONOCYTE,[2],1.67%
same,NEUTROPHIL,[2],15.67%
same,PLATELET COUNT,[2],873.33 x10E3/uL
same,ALANINE AMINOTRANSFERASE,[2],66.67 u/L
same,ALBUMIN,[2],4.27 G/DL
same,ALKALINE PHOSPHATASE,[2],446.67 u/L
same,ASPARTATE AMINOTRANSFERASE,[2],84.33 u/L
same,BLOOD UREA NITROGEN,[2],15 mg/dL
same,CARBON DIOXIDE,[2],23.67 mmol/L
same,CHLORIDE,[2],99.67 MEQ/L
same,CHOLESTEROL,[2],63.67 mg/dL
same,CREATINE PHOSPHOKINASE,[2],419.67 u/L
same,CREATININE,[2],0.3 mg/dL
same,GLUCOSE,[2],149 mg/dL
same,LACTATE DEHYDROGENASE,[2],313.33 u/L
same,LIPASE,[2],9.33 u/L
same,PHOSPHORUS,[2],9.73 mg/dL
same,POTASSIUM,[2],5.57 MEQ/L
same,SODIUM,[2],139.67 MEQ/L
same,TOTAL BILIRUBIN,[2],0.0667 mg/dL
same,TOTAL PROTEIN,[2],5.8 G/DL
same,URIC ACID,[2],0.87 mg/dL
same,BASOPHIL,[3],0%
same,EOSINOPHIL,[3],1%
same,ERYTHROCYTE COUNT,[3],7.21 x10E6/uL
same,HEMATOCRIT,[3],43.6%
same,HEMOGLOBIN,[3],14.63 G/DL
same,LEUKOCYTE COUNT,[3],6.47 x10E3/uL
same,LYMPHOCYTE,[3],79.33%
same,MEAN CORPUSCULAR HEMOGLOBIN,[3],20.33 pg
same,MEAN CORPUSCULAR HEMOGLOBIN CONCENTRATION,[3],33.6 G/DL
same,MEAN CORPUSCULAR VOLUME,[3],60.5 fL
same,MONOCYTE,[3],2.67%
same,NEUTROPHIL,[3],16.67%
same,PLATELET COUNT,[3],1107 x10E3/uL
same,ALANINE AMINOTRANSFERASE,[3],85.33 u/L
same,ALBUMIN,[3],4.53 G/DL
same,ALKALINE PHOSPHATASE,[3],481.33 u/L
same,ASPARTATE AMINOTRANSFERASE,[3],92.33 u/L
same,BLOOD UREA NITROGEN,[3],14.67 mg/dL
same,CARBON DIOXIDE,[3],23 mmol/L
same,CHLORIDE,[3],104 MEQ/L
same,CHOLESTEROL,[3],65.33 mg/dL
same,CREATINE PHOSPHOKINASE,[3],471 u/L
same,CREATININE,[3],0.3 mg/dL
same,GLUCOSE,[3],140.33 mg/dL
same,LACTATE DEHYDROGENASE,[3],332.33 u/L
same,LIPASE,[3],9.33 u/L
same,PHOSPHORUS,[3],8.43 mg/dL
same,POTASSIUM,[3],5.33 MEQ/L
same,SODIUM,[3],146 MEQ/L
same,TOTAL BILIRUBIN,[3],0.1 mg/dL
same,TOTAL PROTEIN,[3],6 G/DL
same,URIC ACID,[3],0.97 mg/dL
same,BASOPHIL,[4],0%
same,EOSINOPHIL,[4],1%
same,ERYTHROCYTE COUNT,[4],6.94 x10E6/uL
same,HEMATOCRIT,[4],42.1%
same,HEMOGLOBIN,[4],13.63 G/DL
same,LEUKOCYTE COUNT,[4],9.2 x10E3/uL
same,LYMPHOCYTE,[4],81%
same,MEAN CORPUSCULAR HEMOGLOBIN,[4],19.63 pg
same,MEAN CORPUSCULAR HEMOGLOBIN CONCENTRATION,[4],32.4 G/DL
same,MEAN CORPUSCULAR VOLUME,[4],60.63 fL
same,MONOCYTE,[4],2.33%
same,NEUTROPHIL,[4],16%
same,PLATELET COUNT,[4],801.33 x10E3/uL
same,ALANINE AMINOTRANSFERASE,[4],58 u/L
same,ALBUMIN,[4],4.3 G/DL
same,ALKALINE PHOSPHATASE,[4],406.67 u/L
same,ASPARTATE AMINOTRANSFERASE,[4],77.33 u/L
same,BLOOD UREA NITROGEN,[4],16 mg/dL
same,CARBON DIOXIDE,[4],25 mmol/L
same,CHLORIDE,[4],99.33 MEQ/L
same,CHOLESTEROL,[4],64.33 mg/dL
same,CREATINE PHOSPHOKINASE,[4],451.67 u/L
same,CREATININE,[4],0.3 mg/dL
same,GLUCOSE,[4],149 mg/dL
same,LACTATE DEHYDROGENASE,[4],118.67 u/L
same,LIPASE,[4],8.67 u/L
same,PHOSPHORUS,[4],9.07 mg/dL
same,POTASSIUM,[4],5.67 MEQ/L
same,SODIUM,[4],138 MEQ/L
same,TOTAL BILIRUBIN,[4],0.1 mg/dL
same,TOTAL PROTEIN,[4],5.77 G/DL
same,URIC ACID,[4],1.1 mg/dL
